Consider 61 molecules from patent US20230123334A1, “AMINO LIPID COMPOUND, PREPARATION METHOD THEREFOR, AND APPLICATION THEREOF” (SHENZHEN SHENXIN BIOTECHNOLOGY CO., LTD., priority 2020, published 2023).

Structures are written as SMILES.

In this experiment the test system is HEK293 cells. The experiment can be described thus: Preliminary screening as mRNA vectors, EGFP mRNA transfection of HEK293 cells. Type of experiment: cell-based. To be noted: EGFP mRNA 50 ng per well, 96-well plates; percentage of GFP fluorescent cells relative to total number of cells (Hoechst). In short, it runs like this:
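Screening format: EGFP mRNA transfection (50 ng/well) into HEK293 in 10% FBS-supplemented DMEM. Percent green fluorescent cells, normalised to Hoechst nuclear count, gave the value; Lipofectamine2000 was the reference transfectant.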
`CCCCCCCCCCCCCCCCCCNc1nc(NCCN2CCCCC2)nc(SCCCCCCCCCCCCCCC)n1` [Compound D4S15N18]: the “Absolute mRNA transfection efficiency in HEK293 cells” value (“Absolute mRNA transfection efficiency” below) is 5.1%.

As to `CCCCCCCCCCCCCCCCSc1nc(NCCCCCC)nc(NCCN2CCCCC2)n1` [Compound D4S16N6], the “Absolute mRNA transfection efficiency” value was determined as 2.6%.

Consider `CCCCCCCCCCCCCCCCSc1nc(NCCCCCCC)nc(NCCN2CCCCC2)n1` [Compound D4S16N7], for which the “Absolute mRNA transfection efficiency” value stood at 0.8%.

For the molecule `CCCCCCCCCCCCCCCCSc1nc(NCCCCCCCC)nc(NCCN2CCCCC2)n1` [Compound D4S16N8], the “Absolute mRNA transfection efficiency” value amounted to 1.3%.

In the case of `CCCCCCCCCCCCCCCCSc1nc(NCCCCCCCCC)nc(NCCN2CCCCC2)n1` [Compound D4S16N9], the “Absolute mRNA transfection efficiency” value is 1.0%.

Turning to `CCCCCCCCCCCCCCCCSc1nc(NCCCCCCCCCCC)nc(NCCN2CCCCC2)n1` [Compound D4S16N11], the “Absolute mRNA transfection efficiency” value stood at 0.5%.

For `CCCCCCCCCCCCCCCCSc1nc(NCCCCCCCCCCCC)nc(NCCN2CCCCC2)n1` [Compound D4S16N12], the “Absolute mRNA transfection efficiency” value is on record as 0.1%.

As to `CCCCCCCCCCCCCCCCSc1nc(NCCCCCCCCCCCCC)nc(NCCN2CCCCC2)n1` [Compound D4S16N13], the “Absolute mRNA transfection efficiency” value was 0.1%.

`CCCCCCCCCCCCCCCCSc1nc(NCCCCCCCCCCCCCCC)nc(NCCN2CCCCC2)n1` [Compound D4S16N15]: the “Absolute mRNA transfection efficiency” value is given as 0.1%.

In the case of `CCCCCCCCCCCCCCCCNc1nc(NCCN2CCCCC2)nc(SCCCCCCCCCCCCCCCC)n1` [Compound D4S16N16], the “Absolute mRNA transfection efficiency” value came to 3.6%.

Turning to `CCCCCCCCCCCCCCCCCCNc1nc(NCCN2CCCCC2)nc(SCCCCCCCCCCCCCCCC)n1` [Compound D4S16N18], the “Absolute mRNA transfection efficiency” value worked out at 6.3%.

Consider `CCCCCCCCCCCCCCCCCCSc1nc(NCCCCCC)nc(NCCN2CCCCC2)n1` [Compound D4S18N6], for which the “Absolute mRNA transfection efficiency” value is listed as 1.5%.

For `CCCCCCCCCCCCCCCCCCSc1nc(NCCCCCCC)nc(NCCN2CCCCC2)n1` [Compound D4S18N7], the “Absolute mRNA transfection efficiency” value amounted to 0.3%.

As to `CCCCCCCCCCCCCCCCCCSc1nc(NCCCCCCCCC)nc(NCCN2CCCCC2)n1` [Compound D4S18N9], the “Absolute mRNA transfection efficiency” value came out at 0.2%.

As to `CCCCCCCCCCCCCCCCCCSc1nc(NCCCCCCCCCCC)nc(NCCN2CCCCC2)n1` [Compound D4S18N11], the “Absolute mRNA transfection efficiency” value is listed as 0.9%.

For `CCCCCCCCCCCCCCCCCCSc1nc(NCCCCCCCCCCCC)nc(NCCN2CCCCC2)n1` [Compound D4S18N12], the “Absolute mRNA transfection efficiency” value is given as 0.7%.

`CCCCCCCCCCCCCCCCCCSc1nc(NCCCCCCCCCCCCC)nc(NCCN2CCCCC2)n1` [Compound D4S18N13]: the “Absolute mRNA transfection efficiency” value is reported as 0.7%.

As for `CCCCCCCCCCCCCCCCCCSc1nc(NCCCCCCCCCCCCCCC)nc(NCCN2CCCCC2)n1` [Compound D4S18N15], the “Absolute mRNA transfection efficiency” value came out at 1.6%.

With `CCCCCCCCCCCCCCCCCCSc1nc(NCCCCCCCCCCCCCCCC)nc(NCCN2CCCCC2)n1` [Compound D4S18N16], the “Absolute mRNA transfection efficiency” value was found to be 0.4%.

Take `CCCCCCCCCCCCCCCCCCNc1nc(NCCN2CCCCC2)nc(SCCCCCCCCCCCCCCCCCC)n1` [Compound D4S18N18]: the “Absolute mRNA transfection efficiency” value was determined as 0.2%.

Turning to `CCCCCCNc1nc(NCCN2CCN(C)CC2)nc(SCCCCCC)n1` [Compound D5S6N6], the “Absolute mRNA transfection efficiency” value is on record as 2.1%.

`CCCCCCCNc1nc(NCCN2CCN(C)CC2)nc(SCCCCCC)n1` [Compound D5S6N7]: the “Absolute mRNA transfection efficiency” value came to 4.3%.

Take `CCCCCCCCNc1nc(NCCN2CCN(C)CC2)nc(SCCCCCC)n1` [Compound D5S6N8]: the “Absolute mRNA transfection efficiency” value was 5.9%.

In the case of `CCCCCCCCCNc1nc(NCCN2CCN(C)CC2)nc(SCCCCCC)n1` [Compound D5S6N9], the “Absolute mRNA transfection efficiency” value came to 2.0%.

As for `CCCCCCCCCCCNc1nc(NCCN2CCN(C)CC2)nc(SCCCCCC)n1` [Compound D5S6N11], the “Absolute mRNA transfection efficiency” value stood at 5.3%.

As to `CCCCCCCCCCCCNc1nc(NCCN2CCN(C)CC2)nc(SCCCCCC)n1` [Compound D5S6N12], the “Absolute mRNA transfection efficiency” value came to 4.4%.

As to `CCCCCCCCCCCCCNc1nc(NCCN2CCN(C)CC2)nc(SCCCCCC)n1` [Compound D5S6N13], the “Absolute mRNA transfection efficiency” value is 7.2%.

Consider `CCCCCCCCCCCCCCCNc1nc(NCCN2CCN(C)CC2)nc(SCCCCCC)n1` [Compound D5S6N15], for which the “Absolute mRNA transfection efficiency” value was 16.4%.

In the case of `CCCCCCCCCCCCCCCCNc1nc(NCCN2CCN(C)CC2)nc(SCCCCCC)n1` [Compound D5S6N16], the “Absolute mRNA transfection efficiency” value is 35.4%.

Regarding `CCCCCCCCCCCCCCCCCCNc1nc(NCCN2CCN(C)CC2)nc(SCCCCCC)n1` [Compound D5S6N18], the “Absolute mRNA transfection efficiency” value stood at 16.6%.

Regarding `CCCCCCSc1nc(NCCN2CCN(C)CC2)nc(SCCCCCC)n1` [Compound D5S6S6], the “Absolute mRNA transfection efficiency” value is on record as 4.3%.

With `CCCCCCCSc1nc(NCCN2CCN(C)CC2)nc(SCCCCCC)n1` [Compound D5S6S7], the “Absolute mRNA transfection efficiency” value stood at 10.0%.

In the case of `CCCCCCCCSc1nc(NCCN2CCN(C)CC2)nc(SCCCCCC)n1` [Compound D5S6S8], the “Absolute mRNA transfection efficiency” value was found to be 8.7%.

Turning to `CCCCCCCCCSc1nc(NCCN2CCN(C)CC2)nc(SCCCCCC)n1` [Compound D5S6S9], the “Absolute mRNA transfection efficiency” value is 8.3%.

Turning to `CCCCCCCCCCSc1nc(NCCN2CCN(C)CC2)nc(SCCCCCC)n1` [Compound D5S6S10], the “Absolute mRNA transfection efficiency” value is 10.1%.

Regarding `CCCCCCCCCCCSc1nc(NCCN2CCN(C)CC2)nc(SCCCCCC)n1` [Compound D5S6S11], the “Absolute mRNA transfection efficiency” value worked out at 21.1%.

Turning to `CCCCCCCCCCCCSc1nc(NCCN2CCN(C)CC2)nc(SCCCCCC)n1` [Compound D5S6S12], the “Absolute mRNA transfection efficiency” value is recorded as 14.0%.

`CCCCCCCCCCCCCCSc1nc(NCCN2CCN(C)CC2)nc(SCCCCCC)n1` [Compound D5S6S14]: the “Absolute mRNA transfection efficiency” value is given as 45.3%.

`CCCCCCCCCCCCCCCSc1nc(NCCN2CCN(C)CC2)nc(SCCCCCC)n1` [Compound D5S6S15]: the “Absolute mRNA transfection efficiency” value turned out to be 29.7%.

With `CCCCCCCCCCCCCCCCSc1nc(NCCN2CCN(C)CC2)nc(SCCCCCC)n1` [Compound D5S6S16], the “Absolute mRNA transfection efficiency” value is reported as 60.5%.

Take `CCCCCCCCCCCCCCCCCCSc1nc(NCCN2CCN(C)CC2)nc(SCCCCCC)n1` [Compound D5S6S18]: the “Absolute mRNA transfection efficiency” value is on record as 55.1%.

In the case of `CCCCCCCSc1nc(NCCCCCC)nc(NCCN2CCN(C)CC2)n1` [Compound D5S7N6], the “Absolute mRNA transfection efficiency” value is given as 1.9%.

As for `CCCCCCCNc1nc(NCCN2CCN(C)CC2)nc(SCCCCCCC)n1` [Compound D5S7N7], the “Absolute mRNA transfection efficiency” value is recorded as 1.0%.

With `CCCCCCCCNc1nc(NCCN2CCN(C)CC2)nc(SCCCCCCC)n1` [Compound D5S7N8], the “Absolute mRNA transfection efficiency” value is 4.3%.

As for `CCCCCCCCCNc1nc(NCCN2CCN(C)CC2)nc(SCCCCCCC)n1` [Compound D5S7N9], the “Absolute mRNA transfection efficiency” value is reported as 3.1%.

In the case of `CCCCCCCCCCCNc1nc(NCCN2CCN(C)CC2)nc(SCCCCCCC)n1` [Compound D5S7N11], the “Absolute mRNA transfection efficiency” value amounted to 8.2%.

Take `CCCCCCCCCCCCNc1nc(NCCN2CCN(C)CC2)nc(SCCCCCCC)n1` [Compound D5S7N12]: the “Absolute mRNA transfection efficiency” value amounted to 23.0%.

For `CCCCCCCCCCCCCNc1nc(NCCN2CCN(C)CC2)nc(SCCCCCCC)n1` [Compound D5S7N13], the “Absolute mRNA transfection efficiency” value worked out at 39.5%.

`CCCCCCCCCCCCCCCNc1nc(NCCN2CCN(C)CC2)nc(SCCCCCCC)n1` [Compound D5S7N15]: the “Absolute mRNA transfection efficiency” value is reported as 38.5%.

Take `CCCCCCCCCCCCCCCCNc1nc(NCCN2CCN(C)CC2)nc(SCCCCCCC)n1` [Compound D5S7N16]: the “Absolute mRNA transfection efficiency” value came to 32.2%.

Take `CCCCCCCCCCCCCCCCCCNc1nc(NCCN2CCN(C)CC2)nc(SCCCCCCC)n1` [Compound D5S7N18]: the “Absolute mRNA transfection efficiency” value is listed as 38.5%.

Regarding `CCCCCCCSc1nc(NCCN2CCN(C)CC2)nc(SCCCCCCC)n1` [Compound D5S7S7], the “Absolute mRNA transfection efficiency” value is listed as 10.5%.

Take `CCCCCCCCSc1nc(NCCN2CCN(C)CC2)nc(SCCCCCCC)n1` [Compound D5S7S8]: the “Absolute mRNA transfection efficiency” value stood at 16.6%.

Take `CCCCCCCCCSc1nc(NCCN2CCN(C)CC2)nc(SCCCCCCC)n1` [Compound D5S7S9]: the “Absolute mRNA transfection efficiency” value is reported as 20.6%.

`CCCCCCCCCCSc1nc(NCCN2CCN(C)CC2)nc(SCCCCCCC)n1` [Compound D5S7S10]: the “Absolute mRNA transfection efficiency” value came out at 12.2%.

For the molecule `CCCCCCCCCCCSc1nc(NCCN2CCN(C)CC2)nc(SCCCCCCC)n1` [Compound D5S7S11], the “Absolute mRNA transfection efficiency” value stood at 42.0%.

On to `CCCCCCCCCCCCSc1nc(NCCN2CCN(C)CC2)nc(SCCCCCCC)n1` [Compound D5S7S12], for which the “Absolute mRNA transfection efficiency” value came to 48.8%.

`CCCCCCCCCCCCCCSc1nc(NCCN2CCN(C)CC2)nc(SCCCCCCC)n1` [Compound D5S7S14]: the “Absolute mRNA transfection efficiency” value is 63.7%.

Consider `CCCCCCCCCCCCCCCSc1nc(NCCN2CCN(C)CC2)nc(SCCCCCCC)n1` [Compound D5S7S15], for which the “Absolute mRNA transfection efficiency” value turned out to be 58.7%.

On to `CCCCCCCCCCCCCCCCSc1nc(NCCN2CCN(C)CC2)nc(SCCCCCCC)n1` [Compound D5S7S16], for which the “Absolute mRNA transfection efficiency” value is 49.2%.

On to `CCCCCCCCCCCCCCCCCCSc1nc(NCCN2CCN(C)CC2)nc(SCCCCCCC)n1` [Compound D5S7S18], for which the “Absolute mRNA transfection efficiency” value was 3.8%.
